Assay results published in ChEMBL document CHEMBL3425423, “Hydroxy tricyclic 1,5-naphthyridinone oxabicyclooctane-linked novel bacterial topoisomerase inhibitors as broad-spectrum antibacterial agents-SAR of RHS moiety (Part-3)” (Bioorg Med Chem Lett, 2015).
Converted amounts (≈) assume the structure as drawn.

Experiments:
Staphylococcus aureus [1] = experiment: Antibacterial activity against Staphylococcus aureus; format: functional
Streptococcus pneumoniae [2] = experiment: Antibacterial activity against Streptococcus pneumoniae; format: functional
Acinetobacter baumannii = experiment: Antibacterial activity against Acinetobacter baumannii IID876; format: functional; details: Acinetobacter baumannii, IID876; read-out: MIC
Enterococcus faecium = experiment: Antibacterial activity against VanA-type vancomycin-resistant Enterococcus faecium A2373; format: functional; details: Enterococcus faecium, A2373; read-out: MIC
[3] = biological target: T1, Voltage-gated inwardly rectifying potassium channel KCNH2 (Homo sapiens, UniProt Q12809); experiment: Inhibition of human ERG expressed in CHO cells measured over 5 mins by patch clamp assay
T1 sequence (Q12809 whole entry): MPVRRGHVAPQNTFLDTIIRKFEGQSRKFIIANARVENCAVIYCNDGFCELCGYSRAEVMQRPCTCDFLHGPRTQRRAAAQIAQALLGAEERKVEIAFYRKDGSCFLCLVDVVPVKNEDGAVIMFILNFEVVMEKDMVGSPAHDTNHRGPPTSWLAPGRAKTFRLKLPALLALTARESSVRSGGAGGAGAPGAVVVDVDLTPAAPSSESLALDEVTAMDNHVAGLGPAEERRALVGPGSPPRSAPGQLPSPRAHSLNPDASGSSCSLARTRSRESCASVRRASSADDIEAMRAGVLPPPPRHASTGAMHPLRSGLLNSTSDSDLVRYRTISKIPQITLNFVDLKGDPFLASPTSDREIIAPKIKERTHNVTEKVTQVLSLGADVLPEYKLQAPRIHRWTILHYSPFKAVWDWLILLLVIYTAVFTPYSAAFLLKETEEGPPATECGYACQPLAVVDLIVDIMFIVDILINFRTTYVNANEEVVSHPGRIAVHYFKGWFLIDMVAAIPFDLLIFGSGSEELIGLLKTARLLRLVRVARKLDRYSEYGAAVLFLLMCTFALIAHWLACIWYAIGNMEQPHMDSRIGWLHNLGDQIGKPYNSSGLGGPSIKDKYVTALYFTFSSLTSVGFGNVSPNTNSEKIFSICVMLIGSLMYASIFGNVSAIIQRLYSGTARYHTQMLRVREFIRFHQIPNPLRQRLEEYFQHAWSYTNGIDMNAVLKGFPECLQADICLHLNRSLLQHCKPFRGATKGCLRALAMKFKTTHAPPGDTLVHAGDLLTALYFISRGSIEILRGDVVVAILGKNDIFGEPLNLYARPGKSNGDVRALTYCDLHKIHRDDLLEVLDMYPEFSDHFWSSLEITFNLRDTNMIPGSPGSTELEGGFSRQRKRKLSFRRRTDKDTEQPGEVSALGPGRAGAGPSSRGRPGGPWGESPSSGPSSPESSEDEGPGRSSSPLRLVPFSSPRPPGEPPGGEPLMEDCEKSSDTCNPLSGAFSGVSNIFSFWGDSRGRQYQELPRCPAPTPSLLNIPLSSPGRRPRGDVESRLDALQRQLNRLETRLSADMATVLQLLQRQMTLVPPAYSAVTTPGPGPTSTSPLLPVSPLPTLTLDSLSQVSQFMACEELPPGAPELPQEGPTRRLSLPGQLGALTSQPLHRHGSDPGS

Moraxella catarrhalis = experiment: Antibacterial activity against Moraxella catarrhalis ATCC 25238; format: functional; details: Moraxella catarrhalis, ATCC 25238; read-out: MIC
Escherichia coli = experiment: Antibacterial activity against Escherichia coli ATCC 25922; format: functional; details: Escherichia coli, ATCC 25922; read-out: MIC
Staphylococcus aureus [4] = experiment: Antibacterial activity against Staphylococcus aureus Smith; format: functional; details: Staphylococcus aureus, Smith; read-out: MIC
[5] = biological target: T1, Voltage-gated inwardly rectifying potassium channel KCNH2; experiment: Displacement of MK499 from human ERG
Haemophilus influenzae = experiment: Antibacterial activity against Haemophilus influenzae ATCC 49247; format: functional; details: Haemophilus influenzae, ATCC 49247; read-out: MIC
Streptococcus pneumoniae [6] = experiment: Antibacterial activity against Streptococcus pneumoniae IID554; format: functional; details: Streptococcus pneumoniae, IID554; read-out: MIC
Pseudomonas aeruginosa = experiment: Antibacterial activity against Pseudomonas aeruginosa PAO1; format: functional; details: Pseudomonas aeruginosa, PAO1; read-out: MIC
Staphylococcus aureus [7] = experiment: Ratio of MIC for quinolone-resistant Staphylococcus aureus MS5935 to MIC for quinolone-sensitive Staphylococcus aureus; format: functional
Enterococcus faecalis = experiment: Antibacterial activity against Enterococcus faecalis ATCC 29212; format: functional; details: Enterococcus faecalis, ATCC 29212; read-out: MIC
[8] = Volume of distribution at steady state in C57BL/6 mouse at 1 mg/kg, iv and 2 mg/kg, po; format: ADME, organism-based; details: in vivo, read-out: Vdss
[9] = Half life in C57BL/6 mouse at 1 mg/kg, iv and 2 mg/kg, po; format: ADME, organism-based; details: in vivo
[10] = Plasma clearance in C57BL/6 mouse at 1 mg/kg, iv and 2 mg/kg, po; format: ADME, organism-based
[11] = Oral bioavailability in C57BL/6 mouse at 2 mg/kg; format: ADME, organism-based; details: in vivo
Mus musculus = experiment: Dose normalized AUC in C57BL/6 mouse at 1 mg/kg, iv and 2 mg/kg, po; format: ADME, organism-based; details: in vivo
Staphylococcus aureus [12] = experiment: Antibacterial activity against Staphylococcus aureus Smith infected in po dosed CD1 mouse administered at 0.5 hrs post infection; format: functional
Staphylococcus aureus [13] = experiment: Antibacterial activity against Staphylococcus aureus Smith infected in iv dosed CD1 mouse administered at 0.5 hrs post infection; format: functional
Staphylococcus aureus [14] = experiment: Antibacterial activity against Staphylococcus aureus Smith infected in iv dosed ICR mouse assessed as survival rate administered at 1 hr post infection measured over 7 days; format: functional
Staphylococcus aureus [15] = experiment: Antibacterial activity against Staphylococcus aureus Smith infected in po dosed ICR mouse assessed as survival rate administered at 1 hr post infection measured over 7 days; format: functional
Staphylococcus aureus [16] = experiment: Antibacterial activity against quinolone-resistant Staphylococcus aureus MS5935; format: functional
Staphylococcus aureus [17] = experiment: Antibacterial activity against quinolone-sensitive Staphylococcus aureus MS5935

Row | SMILES | MIC (Acinetobacter baumannii) [mg/L] | MIC (Enterococcus faecium) [mg/L] | IC50 [3] [µM] | MIC (Moraxella catarrhalis) [mg/L] | MIC (Escherichia coli) [mg/L] | MIC (Staphylococcus aureus [4]) [mg/L] | IC50 [5] [µM] | MIC (Haemophilus influenzae) [mg/L] | MIC (Streptococcus pneumoniae [6]) [mg/L] | MIC (Pseudomonas aeruginosa) [mg/L] | Ratio (Staphylococcus aureus [7]) | MIC (Enterococcus faecalis) [mg/L] | Vd [8] [L/kg] | half-life [9] [h] | clearance [10] [L/h/kg] | bioavailability [11] [%] | AUC/dose (Mus musculus) [µM·h/mg/kg] | ED90 (Staphylococcus aureus [13]) [mg/kg] | other results
1 | O=c1ccc2ncc(=O)n3c2n1C[C@H]3CN1CCC(NCc2cc3c(cn2)OCCC3)CC1 [GEPOTIDACIN] | – | – | – | – | – | – | – | – | – | – | – | – | – | – | – | – | – | – | MIC90 (Staphylococcus aureus [1]): 0.5 mg/L (≈ 1.11 µM); MIC90 (Streptococcus pneumoniae [2]): 0.25 mg/L (≈ 0.557 µM)
2 | O=c1ccc2ncc(F)c3c2n1C[C@@]3(O)CC12CCC(NCc3cc4c(cn3)OCCS4(=O)=O)(CC1)CO2 | 32 (≈ 59 µM) | 32 (≈ 59 µM) | > 60 | 32 (≈ 59 µM) | 32 (≈ 59 µM) | 8 (≈ 14.7 µM) | > 60 | 32 (≈ 59 µM) | 4 (≈ 7.37 µM) | 32 (≈ 59 µM) | <4 | 32 (≈ 59 µM) | – | – | – | – | – | – | –
3 | O=C1COc2cc(F)c(CNC34CCC(C[C@]5(O)Cn6c(=O)ccc7ncc(F)c5c76)(CC3)OC4)nc2N1 | 8 (≈ 15.2 µM) | 16 (≈ 30.4 µM) | 333 | – | 8 (≈ 15.2 µM) | 0.5 (≈ 0.951 µM) | > 60 | – | 2 (≈ 3.81 µM) | 16 (≈ 30.4 µM) | <4 | 4 (≈ 7.61 µM) | 1.3 | 1.7 | 0.9 | 39 | 2.1 | 12 | ED90 (Staphylococcus aureus [12]): 15 mg/kg
4 | O=c1ccc2ncc(F)c3c2n1C[C@@]3(O)CC12CCC(NCc3cc4c(cn3)OCCO4)(CC1)CO2 | 8 (≈ 16.2 µM) | 16 (≈ 32.4 µM) | – | – | 16 (≈ 32.4 µM) | 0.5 (≈ 1.01 µM) | – | – | 2 (≈ 4.04 µM) | 16 (≈ 32.4 µM) | – | 8 (≈ 16.2 µM) | 17 | 2 | 2.82 | 60 | 0.5 | 12 | ED50 (Staphylococcus aureus [14]): 11 mg/kg; ED50 (Staphylococcus aureus [15]): 5.1 mg/kg
5 | O=C1COc2cc(Cl)c(CNC34CCC(C[C@]5(O)Cn6c(=O)ccc7ncc(F)c5c76)(CC3)OC4)nc2N1 | 2 (≈ 3.69 µM) | 16 (≈ 29.5 µM) | 126 | – | 8 (≈ 14.8 µM) | 0.25 (≈ 0.461 µM) | 27.7 | – | 2 (≈ 3.69 µM) | 16 (≈ 29.5 µM) | <4 | 8 (≈ 14.8 µM) | 7 | 3.5 | 2.28 | 51 | 0.7 | 24 | ED90 (Staphylococcus aureus [12]): 29 mg/kg
6 | O=c1ccc2ncc(F)c3c2n1C[C@@]3(O)CC12CCC(NCc3cc4c(cn3)S(=O)(=O)CCO4)(CC1)CO2 | 32 (≈ 59 µM) | 32 (≈ 59 µM) | > 60 | 32 (≈ 59 µM) | 32 (≈ 59 µM) | 8 (≈ 14.7 µM) | > 60 | 32 (≈ 59 µM) | 32 (≈ 59 µM) | 32 (≈ 59 µM) | <4 | 32 (≈ 59 µM) | – | – | – | – | – | – | –
7 | CCc1cc2c(nc1CNC13CCC(C[C@]4(O)Cn5c(=O)ccc6ncc(F)c4c65)(CC1)OC3)NC(=O)CO2 | 1 (≈ 1.87 µM) | 32 (≈ 59.7 µM) | > 60 | 1 (≈ 1.87 µM) | 16 (≈ 29.9 µM) | 8 (≈ 14.9 µM) | > 60 | 16 (≈ 29.9 µM) | 32 (≈ 59.7 µM) | 32 (≈ 59.7 µM) | <4 | 32 (≈ 59.7 µM) | – | – | – | – | – | – | –
8 | C[C@H]1COc2c(N3CCN(C)CC3)c(F)cc3c(=O)c(C(=O)O)cn1c23.C[C@H]1COc2c(N3CCN(C)CC3)c(F)cc3c(=O)c(C(=O)O)cn1c23.O [LEVOFLOXACIN] | – | – | – | – | – | – | – | – | – | – | >64 | – | – | – | – | – | – | – | MIC (Staphylococcus aureus [16]): > 16 mg/L; MIC (Staphylococcus aureus [17]): 0.25 mg/L
